For data set [1], the system named is human retinal microvascular endothelial cells (HRECs). As to the kind of experiment: In vitro HREC tube formation assay. The data set is classed as cell-based. How it is done:
In vitro tube formation assays were carried out as previously described. Briefly, near confluent microvascular endothelial cells were pretreated with VEGF (100 ng/ml) for 2 h and then treated for 24 h with test compounds at serial concentrations, as indicated. Cells without VEGF treatment or with VEGF only were used as control. The cells were then detached and plated sparsely (2.5 ×10^4/well) on 24-well plates coated with 12.5% (v/v) Matrigel (BD, Franklin Lakes, NJ) and left overnight. The medium was then aspirated and 250 μl/well of 12.5% Matrigel was overlaid on the cells for 2 h to allow the polymerization of Matrigel, followed by addition of 500 μl/well of basal medium MCD131 with 10% fetal calf serum (FCS) for 24 h. The following day, the culture plates were observed under a phase contrast microscope and photographed at random in five fields (×10). The tubule length (mm/mm^2) per microscope field was quantified.

Data set [2] is described as follows: Plasma stability, rat. The data set is classed as in vitro ADME.
A short description of data set [3]: Hepatic microsome stability, human. The data set is classed as in vitro ADME. The following applies: liver microsomes, pH 7.4, terminal half-life of a two-phase exponential decay, read-out: Hepatic microsome stability T1/2. As to the method:
Hepatic microsomes stability assays were performed as reported before. […] After preincubation at 37°C for 10 min, enzyme reactions were initiated by adding 120 μL of NADPH-generating system (2 mM NADP^+, 10 mM glucose-6-phosphate, 0.4 U/ml glucose-6-phosphate dehydrogenase, and 5 mM MgCl2) in the presence of 100 mM potassium phosphate buffer (pH 7.4). The final concentration of each model compound used was 1 μM. The microsomal concentrations used were 1.0 mg/mL. Compounds were incubated in microsomes for 0, 5, 15, 30 and 60 min. The reactions were stopped by the addition of ice cold ACN and the reaction mixtures were centrifuged at 10,000g for 10 min before the supernatant was removed for analysis.
Except for the primary assay in the HTS campaign, all experiments were repeated at least three times. Results are expressed as mean ± SEM. The Mann-Whitney test was used to determine statistical significance of the densitometry data of Western blot analysis. Unpaired two-tailed Student’s t-test was performed for the significance of the results of ELISA and in vitro tubule formation assay. ANOVA was used to determine the significance in vivo CNV models using the Tukey post-hoc test for multiple comparisons. […] T1/2 was calculated using the best fit curve resulting from non-linear (human) or linear (mouse and rat) regression analyses using Prism 7.
A general note: Liver microsomes are vesicles of endoplasmic reticulum, rich in cytochrome P450 enzymes.

Data set [4] deals with T1, APJ (Homo sapiens, UniProt P35414).
T1 sequence (P35414 1-380): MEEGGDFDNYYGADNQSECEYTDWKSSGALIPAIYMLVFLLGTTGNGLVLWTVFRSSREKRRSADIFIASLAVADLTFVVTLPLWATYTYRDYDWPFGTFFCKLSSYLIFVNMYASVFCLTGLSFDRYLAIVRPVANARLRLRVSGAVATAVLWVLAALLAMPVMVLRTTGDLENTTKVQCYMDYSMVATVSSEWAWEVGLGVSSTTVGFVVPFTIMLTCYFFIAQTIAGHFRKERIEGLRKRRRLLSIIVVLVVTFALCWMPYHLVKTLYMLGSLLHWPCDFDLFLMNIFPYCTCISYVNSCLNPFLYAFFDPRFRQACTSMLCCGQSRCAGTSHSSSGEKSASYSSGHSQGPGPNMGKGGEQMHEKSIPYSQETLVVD
As to the kind of experiment: APJ β-arrestin recruitment assay (PathHunter, CHO-K1-APJ). The data set is classed as cell-based. The arrangement: β-galactosidase enzyme fragment (enzyme fragment complementation construct); host or cells: CHO-K1 (CHO-K1-APJ, PathHunter). As to the method:
PathHunter™ GPCR Arrestin and cAMP Hunter™ cell lines (DiscoveRx Corp., Fremont, CA) were used to assay G-protein-dependent signaling and β-arrestin recruitment to APJ. CHO-K1 cells stably expressing APJ (CHO-K1-APJ) or AT1 (CHO-K1-AT1) with β-arrestin/β-galactosidase enzyme fragment complementation constructs were maintained in HAM's F-12 medium (Hyclone, Logan, UT) supplemented with 10% FBS, 1X Penicillin-Streptomycin-Glutamine (Invitrogen; Carlsbad, CA), 300 μg/ml hygromycin (EMD Biosciences, San Diego, CA), and 800 μg/ml Geneticin (Cellgro, Manassas, VA). Primary Human Retinal Microvascular Endothelial Cells (HRECs) were purchased from Cell Systems (Kirkland, WA) and maintained in Complete Classic Medium with CultureBoost-R™ (Cell Systems). Parent CHO-K1 cells were obtained from ATCC and maintained in HAM’s F-12 medium supplemented with 10% FBS, and1X Penicillin-Streptomycin-Glutamine (Invitrogen; Carlsbad, CA). All cells were incubated at 37°C (5% CO2, 95% relative humidity) and maintained at less than 70% to 80% confluence (approximately 75,000 cells/cm^2). Cell heterologously expressing APJ or AT1 were not used after 10 passages. HRECs were not used in any experiments after five passages.
CHO-K1 cells engineered to over-express APJ or AT1, and β-arrestin were removed from flasks using TrypLE Select (1X), no phenol red (Life Technologies, Grand Island, NY), centrifuged, and resuspended in CP2 Reagent (DiscoveRx, Fremont, CA). Cells were counted using a Countess Automated Cell Counter (Invitrogen, Carlsbad, CA) and 5,000 cells/well were plated in a 384-well tissue culture treated microplate (Corning, Corning, NY). All plates were incubated overnight at 37°C, 5% CO2 in a final volume of 25 μl/well. Following incubation, 5 μl of peptides (10-point concentrations) and controls prepared in ligand buffer (1X HBSS, 10 mM HEPES, 0.1% BSA) were added to cells and incubated at 37°C for 1.5 h. Using a Multidrop Combi Reagent Dispenser (Thermo Scientific), 12 μl of Detection Reagent (DiscoveRx) comprised of substrate and co-factors was added to all wells and incubated at room temperature in the dark for 1 h. Chemiluminescent signal was detected on an EnVision Multi-label plate reader (Perkin Elmer) using a counting time of 1 s/well. The robustness of data from each screening plate and run was monitored by Z’ and Signal Window calculation.
A general note: Activated receptors often draw arrestin, which recruitment assays turn into a signal.

A word on the IC50: it is the concentration that gives 50% inhibition.

For the molecule `CCN(CC)Cc1cc(Nc2ccnc3cc(Cl)ccc23)ccc1O` [AQ, amodiaquine], the “Effect on Ap13-dependent increase in HREC tube formation” value in data set [1] (Ap13-induced, concentration-dependent) is on record as “blocked Ap13-dependent increases in tube formation”. In addition, in data set [1] (VEGF 100 ng/mL, absence of exogenous Ap13), the “Effect on VEGF-induced HREC tube formation” value is “blocked VEGF-induced tube formation”. This molecule returned a Plasma stability in data set [2] of 46.3 % remaining at 3 hrs. In data set [3], the half-life at 1 μM stood at 17 min. In addition, the “Antagonism of Ap13-mediated recruitment of β-arrestin” value in data set [4] is reported as “neither AQ nor 1, 3, 4, 5, or 6 antagonized”. In addition, the half-maximal inhibitory concentration (IC50) in data set [4] (secondary assay, Ap13-mediated β-arrestin recruitment) was > 99 µM.

These data come from publication PMC6135396, “Repurposing antimalarial aminoquinolines and related compounds for treatment of retinal neovascularization” (PLoS ONE, 2018).
